Data as given in patent publication US20100240040A1, “METHOD FOR SCREENING FOR SELECTIVE MODULATOR OF THE NF-KB PATHWAY ACTIVATION” (INSTITUT PASTEUR, priority 2007, published 2010).
Where a SMILES comes first, the peptide text is derived from it.

Experiments:
[1] = target: T1, CC2-LZ interaction with cellular polyubiquitinylated proteins (Mus musculus, UniProt O88522); assay: Pull-down of polyubiquitinylated proteins from JM4.5.2 extracts with biotinylated CC2-LZ, anti-ubiquitin Western blot; assay type: biochemical; conditions: 20 μM peptide, extracts of TNF-α stimulated JM4.5.2 cells
T1 construct: made in house; host or cells: chemical synthesis (bait); crude extract of JM4.5.2 cells with or without TNFα (partners)
T1 sequence (O88522 253-336): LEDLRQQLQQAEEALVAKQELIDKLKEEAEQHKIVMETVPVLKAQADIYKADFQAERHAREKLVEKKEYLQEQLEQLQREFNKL
Protocol: 24·10^7 JM4.5.2 cells were stimulated or not with 10 ng/ml of TNFα for 10 minutes at 37° C., washed twice with cold PBS and lysed in 900 μl of lysis buffer containing a protease inhibitor mixture as indicated in Example 1.D. Lysates were clarified at 15 000×g at 4° C. for 30 min. 150 μl of proteins were incubated 2 h at 4° C. with 150 μl of streptavidin magnetic beads (MagPrep®, Novagen) pre-incubated 1 h at 4° C. with 10 μg of biotynilated-CC2-LZ and with or without 20 μM of peptides (BA-NLM or BA-DR NLM). Beads were washed 4 times in buffer A (10 mM Hepes pH 7.5, 150 mM NaCl, 8 mM MgCl2, 10% glycerol, 0.1 mM DDM and 1 mM DTE) and resuspended in 30 μl of laemmli buffer containing 6 M Urea. Samples were analysed by Western blotting using anti-ubiquitin antibodies (Sigma) as well as anti-NDPK-B antibodies for loading controls.
Thus, the Inventors examined whether DR NLM impedes the interaction between NEMO and the K63 polyubiquitin chains. To this end, they developed a pull down assay which uses the a peptide comprising the CC2 and the LZ domains of NEMO as a bait to pull down the polyubiquitinylated proteins as described in Example 1.J and depicted in FIG. 7A. […] After extensive washing of beads, all mono and polyubiquitinylated proteins bound to CC2-LZ were analysed by Western blot using anti-ubiquitin antibody (Sigma).

[2] = Circular dichroism and gel filtration, self-association of peptides; assay type: physicochemical; conditions: peptide concentration up to 100 μM; data not shown
Protocol: Far-UV circular dichroism (CD) measurements were performed with an Aviv 215 spectropolarimeter with samples diluted in 10 mM NaPO4 at pH 7.
Then, unlike the LZ peptide, DR NLM peptide as well as NLM peptide are unable to self-associate. Self association of LZ peptide is described by Agou et al., 2004b.

NF-κB pathway = conditions: reported in WO 2005/027959; cited from earlier work

oligomeric state / self-association [2]: behave as monomer
Compound: CC[C@H](C)[C@H](NC(=O)[C@H](CC(=O)O)NC(=O)[C@H](C)NC(=O)[C@H](CCC(N)=O)NC(=O)[C@H](C)NC(=O)[C@H](CCCCN)NC(=O)[C@H](CC(C)C)NC(C)=O)C(=O)N[C@@H](Cc1ccc(O)cc1)C(=O)N[C@@H](CCCCN)C(=O)N[C@@H](C)C(=O)N[C@@H](CCCNC(=N)N)C(=O)N[C@@H](Cc1ccccc1)C(=O)N[C@@H](CCC(N)=O)C(=O)N[C@@H](C)C(=O)N[C@@H](CCC(=O)O)C(=O)N[C@@H](CCCNC(=N)N)C(=O)N[C@@H](Cc1c[nH]cn1)C(=O)N[C@@H](C)C(=O)N[C@@H](CCCNC(=N)N)C(=O)N[C@@H](CCC(=O)O)C(=O)N[C@@H](CCCCN)C(N)=O [DR NLM] (Ac-LKAQADIYKARFQAERHAREK-NH2; N-terminus and C-terminus assumed)
inhibition of CC2-LZ interaction with polyubiquitinylated proteins [1]: abolishes the CC2-LZ interaction with the cellular polyubiquitinylated proteins
inhibition of NF-κB activation (NF-κB pathway): inhibit NF-κB activation
